From PubChem BioAssay (NCI)
“And” between values parts separate entries of the source, which are not always exact repeats. Equal entries are not always repeated.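 Cultured in 96-well plates, cells were exposed to test compound for 48 hours across five concentrations. Here, GI50 denotes the concentration required for 50% inhibition of growth. TGI: total growth inhibition.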

Tests used:
Assay in all cases: DTP human tumour cell line panel, 48 h
SF-268 CNS = system: SF-268 CNS
HT29 colon = system: HT29 colon
RPMI-8226 leukemia = system: RPMI-8226 leukemia
ACHN renal = system: ACHN renal
SW-620 colon = system: SW-620 colon
SNB-75 CNS = system: SNB-75 CNS
MALME-3M melanoma = system: MALME-3M melanoma
OVCAR-8 ovarian = system: OVCAR-8 ovarian
NCI-H522 lung = system: NCI-H522 lung
DU-145 prostate = system: DU-145 prostate

SMILES	TGI (SF-268 CNS)	TGI (HT29 colon)	TGI (RPMI-8226 leukemia)	TGI (ACHN renal)	TGI (SW-620 colon)	TGI (SNB-75 CNS)	TGI (MALME-3M melanoma)	TGI (OVCAR-8 ovarian)	TGI (NCI-H522 lung)	GI50 (SF-268 CNS)	GI50 (NCI-H522 lung)	GI50 (ACHN renal)	GI50 (DU-145 prostate)	TGI (DU-145 prostate)	GI50 (SW-620 colon)	GI50 (SNB-75 CNS)	GI50 (MALME-3M melanoma)	GI50 (OVCAR-8 ovarian)	GI50 (HT29 colon)	GI50 (RPMI-8226 leukemia)
CC1=CC(C)(c2c[nH]c3ccccc23)CC(C)(C)c2c1[nH]c1ccccc21 (stereo not drawn)	> 100 µM	28.6 µM	38.9 µM	44.5 µM	32.1 µM	67.4 µM	35 µM	29.8 µM												
CCCCC(C)/C=C/C(=O)C1=C(O)/C(=C/C(=O)O)OC1=O (stereo not drawn)		> 100 µM	> 100 µM	> 100 µM	> 100 µM	> 100 µM	> 100 µM	> 100 µM												
O=C1/C(=C/c2ccc3c(c2)OCCO3)CCC/C1=C\c1ccc2c(c1)OCCO2	> 100 µM	52 µM	45.8 µM	> 100 µM	> 100 µM	66.9 µM	> 100 µM	30.6 µM	92.3 µM											
O=S(=O)(NCCNc1nccc(-c2c(-c3ccc(F)c(O)c3)nc3sccn23)n1)c1ccc(Cl)cc1	13.4 µM			> 50 µM	> 50 µM	9.31 µM	22.7 µM	36.7 µM	18.6 µM	1800 nM	2080 nM	1.4 µM	2900 nM	> 50 µM	> 50 µM	1130 nM	1.69 µM	2.18 µM		
O=c1c2ccccc2[nH]c2c(O)ccc(O)c12	76.5 µM	> 84.9 µM	70.1 µM	33.7 µM	36.1 µM		59.7 µM	35.2 µM	29 µM											
O=c1c2cc(Br)cc(Br)c2nc(CCCl)n1-c1ccc(O)c([N+](=O)[O-])c1	37.9 µM	41.1 µM	56.1 µM	33.9 µM	36.2 µM	39.2 µM	36.4 µM	41.6 µM	23.5 µM											
C[C@H]1C/C=C/[C@H]2[C@@H]3O[C@]3(C)[C@@H](C)[C@H]3[C@H](Cc4ccccc4)NC(=O)[C@]32OC(=O)O/C=C/[C@@](C)(O)C1=O		99.2 µM and 125 µM and > 250 µM	76.2 µM and 44.9 µM and 32.2 µM				2.91 µM and 3.5 µM and 0.877 µM	89.7 µM and 125 µM and > 250 µM	4.24 µM and 12.3 µM and 39.8 µM	12.5 nM and 25 nM	12.5 nM and 25 nM					25 nM	0.0212 µM	15 µM	46.5 nM and 25 nM	235 nM and 49.3 nM
NCCCOc1cc2ccccc2cc1C(=O)Nc1ccc(Cl)cc1OC(=O)c1cc2ccccc2cc1OCCCN	2.44 µM			0.972 µM	0.345 µM	0.859 µM			0.639 µM	922 nM	235 nM	0.373 µM	303 nM	0.781 µM	0.181 µM	119 nM			266 nM	
N#Cc1c(-c2ccccc2)cc(-c2ccc(N)cc2)[nH]c1=O	> 100 µM	> 100 µM	> 100 µM	> 100 µM	> 100 µM	> 100 µM	> 100 µM	> 100 µM	> 100 µM											
C=C1c2ccccc2C(=O)c2c1c1c(C(=O)OC)c(OC(=O)OCc3ccc([N+](=O)[O-])cc3)ccc1n2Cc1ccccc1	> 100 µM		13.1 µM	> 100 µM	> 100 µM		> 100 µM	> 100 µM	38.6 µM	46400 nM	6830 nM	55.9 µM	3620 nM	33.5 µM	5.63 µM		36 µM	2.51 µM		2300 nM
Nc1nonc1-c1nc2ccccc2n1Cc1ccc(F)cc1	> 100 µM	> 100 µM		> 100 µM	> 100 µM	9.52 µM	> 100 µM	> 100 µM	> 100 µM	9610 nM	4420 nM	16 µM	> 100000 nM	> 100 µM	3.54 µM	1410 nM	5.09 µM	> 100 µM	3550 nM	
CC(=O)Oc1ccc2c(c1)[C@@]1(C)CCCC(C)(C)[C@@H]1CC2	47.9 µM	> 100 µM	30.3 µM	33.5 µM	> 100 µM			41.6 µM	69.2 µM	20900 nM	24200 nM	19.1 µM			28.2 µM			18.8 µM	31700 nM	12100 nM
Cc1ccccc1NC(=O)/C=N/O	> 100 µM	> 100 µM	> 100 µM	> 100 µM	> 100 µM	> 100 µM	> 100 µM	> 100 µM	> 100 µM											
COC(=O)c1cccc2c3ccccc3c3ccccc3c12	> 100 µM	83 µM		> 100 µM	> 100 µM	> 100 µM	> 100 µM	58.2 µM	80.9 µM											
[N-]=[N+]=NCCCn1c2c(c3ccc([N+](=O)[O-])cc3c1=O)C(=O)c1cc3c(cc1-2)OCO3		> 100 µM		0.459 µM	> 100 µM	> 100 µM		16.6 µM	0.844 µM		109 nM	< 0.0161 µM	34.2 nM	0.271 µM	< 0.0285 µM			< 0.0446 µM		
CCOC(=O)C(=O)Nc1cc(Cl)c(Cl)cc1Cl	> 100 µM	> 100 µM	> 100 µM	> 100 µM	> 100 µM	> 100 µM	> 100 µM	> 100 µM	> 100 µM											
COC(=O)CCC(=O)N1C/C(=C\c2ccccc2)C(=O)/C(=C/c2ccccc2)C1	5.89 µM	4.09 µM	> 100 µM	3.8 µM	0.389 µM	5.27 µM	4.62 µM	14.6 µM												
Cc1cccc(C)c1NC(=O)CCc1nnc2s/c(=C\c3ccc(N(C)C)cc3)c(=O)n12	> 100 µM	> 100 µM	> 100 µM	> 100 µM	> 100 µM	> 100 µM	> 100 µM	> 100 µM	> 100 µM											
CC1=C(C(=O)NCc2ccccc2)C(c2ccc(Cl)c(Cl)c2)C(C(=O)NCc2ccccc2)=C(C)N1	> 100 µM	> 100 µM	> 100 µM	> 100 µM	> 100 µM	> 100 µM	> 100 µM	> 100 µM	> 100 µM											
